Holding throughout (assay type): functional, cell-based
A short description of assay [1]: Cytotoxicity against human BGC cells after 5 days by MTT assay. Conditions: 120 h.
The next assay concerns HL-60. The experiment in a line: Cytotoxicity against human HL60 cells after 5 days by MTT assay. To be noted: HL-60, 120 h. On the technique in general: Formazan colour is commonly taken as a measure of viable cells.
The test system of another assay is HCT-8. Briefly: Cytotoxicity against human HCT8 cells after 5 days by MTT assay. Conditions: HCT-8, 120 h.
The next assay relates to Bel-7402. The experiment in a line: Cytotoxicity against human Bel7402 cells after 5 days by MTT assay. Conditions: Bel-7402, 120 h.

As a reminder, the IC50 is the midpoint of a concentration-inhibition curve. The low end stands for higher potency, the high end for lower potency. As to `COc1cc([C@@H]2c3cc4c(cc3[C@@H](O[C@@H]3O[C@@H]5CO[C@@H](C)O[C@H]5[C@H](O)[C@H]3O)[C@H]3COC(=O)[C@H]23)OCO4)cc(OC)c1O` [ETOPOSIDE], the IC50 in assay [1] came to 6700 nM; in the assay on HL-60 it was 160 nM; in the assay with HCT-8, 6400 nM; in the assay with Bel-7402 it was 1900 nM.
For the compound `CCCCCCCCCCCC[C@@H](O)[C@H]1CC[C@H]([C@H](O)CCCCCCCCCCC[C@H](O)CCC2=C[C@H](C)OC2=O)O1` [TONKINECIN], the IC50 in assay [1] amounted to 5100 nM; in the assay on HL-60 it was 520 nM; in the assay on HCT-8, 380 nM; in the assay with Bel-7402, 1500 nM.

(Values after ChEMBL document CHEMBL1158259, “Tonkinecin, a novel bioactive annonaceous acetogenin from Uvaria tonkinesis” (J Nat Prod, 1996).)
